Reference: patent US9181273B2, “Morpholine-spirocyclic piperidine amides as modulators of ion channels” (Vertex Pharmaceuticals Incorporated, priority 2011, dated 2015)

Each compound was assayed against human NaV subtype, like NaV 1.7 (Homo sapiens, UniProt Q15858) (assay: E-VIPR optical membrane potential assay with electrical stimulation). Details: not given.
Assay type: cell-based

Chain of human NaV subtype, like NaV 1.7 (Q15858 whole entry): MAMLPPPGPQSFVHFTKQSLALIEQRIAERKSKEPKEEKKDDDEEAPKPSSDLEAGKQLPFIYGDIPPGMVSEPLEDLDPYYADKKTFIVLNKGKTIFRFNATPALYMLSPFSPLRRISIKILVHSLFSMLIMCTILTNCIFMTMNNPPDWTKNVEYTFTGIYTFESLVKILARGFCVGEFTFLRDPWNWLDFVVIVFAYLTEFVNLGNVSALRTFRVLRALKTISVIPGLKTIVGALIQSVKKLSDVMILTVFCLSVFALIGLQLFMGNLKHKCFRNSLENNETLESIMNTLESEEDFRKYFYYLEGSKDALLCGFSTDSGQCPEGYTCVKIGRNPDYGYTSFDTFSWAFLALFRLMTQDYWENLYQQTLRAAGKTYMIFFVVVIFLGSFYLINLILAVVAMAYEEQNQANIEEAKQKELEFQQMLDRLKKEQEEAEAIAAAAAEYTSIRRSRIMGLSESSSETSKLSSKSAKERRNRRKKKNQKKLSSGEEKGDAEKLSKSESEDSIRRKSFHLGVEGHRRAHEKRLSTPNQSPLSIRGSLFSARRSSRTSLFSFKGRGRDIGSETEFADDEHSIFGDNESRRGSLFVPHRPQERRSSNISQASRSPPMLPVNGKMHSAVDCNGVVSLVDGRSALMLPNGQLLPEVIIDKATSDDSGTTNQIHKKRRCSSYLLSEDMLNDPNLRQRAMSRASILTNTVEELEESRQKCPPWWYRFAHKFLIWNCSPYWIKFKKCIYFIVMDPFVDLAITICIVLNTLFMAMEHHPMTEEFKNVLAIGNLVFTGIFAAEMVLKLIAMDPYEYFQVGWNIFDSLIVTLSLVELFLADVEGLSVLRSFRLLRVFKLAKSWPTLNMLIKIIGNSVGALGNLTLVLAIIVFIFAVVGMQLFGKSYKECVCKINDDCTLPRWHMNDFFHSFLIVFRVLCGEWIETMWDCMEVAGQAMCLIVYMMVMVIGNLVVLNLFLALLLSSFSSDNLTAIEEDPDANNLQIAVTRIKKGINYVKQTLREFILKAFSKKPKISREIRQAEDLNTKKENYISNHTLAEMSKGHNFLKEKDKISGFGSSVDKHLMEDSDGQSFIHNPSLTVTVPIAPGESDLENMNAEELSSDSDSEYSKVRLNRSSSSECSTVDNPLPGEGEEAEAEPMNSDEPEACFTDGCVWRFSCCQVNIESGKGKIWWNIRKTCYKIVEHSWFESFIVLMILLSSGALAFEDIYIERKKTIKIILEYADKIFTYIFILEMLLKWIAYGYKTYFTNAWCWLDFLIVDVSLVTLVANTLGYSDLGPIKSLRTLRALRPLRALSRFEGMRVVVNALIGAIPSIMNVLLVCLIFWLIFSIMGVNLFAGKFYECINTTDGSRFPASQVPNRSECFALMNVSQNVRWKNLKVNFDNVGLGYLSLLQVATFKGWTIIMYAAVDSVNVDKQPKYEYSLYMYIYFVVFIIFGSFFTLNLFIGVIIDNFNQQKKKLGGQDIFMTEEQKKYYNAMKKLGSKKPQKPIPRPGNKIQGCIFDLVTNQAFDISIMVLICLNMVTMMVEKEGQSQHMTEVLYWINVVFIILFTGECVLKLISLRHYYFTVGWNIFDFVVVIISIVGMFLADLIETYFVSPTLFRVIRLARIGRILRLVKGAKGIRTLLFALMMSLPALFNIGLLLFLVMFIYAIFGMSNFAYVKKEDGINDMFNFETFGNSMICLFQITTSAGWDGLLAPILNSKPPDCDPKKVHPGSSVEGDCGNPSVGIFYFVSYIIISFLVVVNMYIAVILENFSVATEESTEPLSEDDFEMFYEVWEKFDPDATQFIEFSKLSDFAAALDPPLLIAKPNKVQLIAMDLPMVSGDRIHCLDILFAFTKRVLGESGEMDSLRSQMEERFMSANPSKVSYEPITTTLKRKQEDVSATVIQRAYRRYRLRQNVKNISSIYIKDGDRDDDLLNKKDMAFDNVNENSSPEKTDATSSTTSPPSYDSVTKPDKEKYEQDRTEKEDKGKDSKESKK

**Q.** COCC1CN(c2ncccn2)CC2(CCN(C(=O)c3ccc(C(C)(C)C)c(OC)c3)CC2)O1 (stereo not shown) [Compound 191] was tested. Which IC50 did it give?
**A.** The IC50 was < 2000 nM.

Same assay, conditions: active against one or more sodium channels; assay and NaV subtype not specified for Table 3; read-out: IC50 Binned Activity Data

**Q.** For COc1cc(C(=O)N2CCC3(CC2)CN(CC(F)(F)F)CC(c2ncc(C)s2)O3)ccc1OC(C)C (stereo not shown) [Compound 152], which IC50 is on record?
**A.** Its IC50 is < 2000 nM.

**Q.** For CCC1CN(c2ncccn2)CC2(CCN(C(=O)c3ccc(C4(O)CCCCC4)cc3)CC2)O1 (stereo not shown) [Compound 67], which IC50 is on record?
**A.** Its IC50 is < 2000 nM.

**Q.** COCN1CC(c2cccc(OC)n2)OC2(CCN(C(=O)c3ccc(OC(C)C)c(C)c3)CC2)C1 (stereo not shown) [Compound 256] was tested. Which IC50 did it give?
**A.** Its IC50 is < 2000 nM.

**Q.** For COCN1CC(c2ncccn2)OC2(CCN(C(=O)c3ccc(C4(O)CCC4)cc3)CC2)C1 (stereo not shown) [Compound 264], which IC50 is on record?
**A.** Its IC50 is > 5000 nM.

**Q.** How did the IC50 turn out when CCC1CN(c2ccccn2)CC2(CCN(C(=O)c3ccc(C4(O)CCCC4)c(F)c3)CC2)O1 (stereo not shown) [Compound 17] was run?
**A.** Its IC50 is < 2000 nM.

**Q.** How did the IC50 turn out when Cc1cc(C(=O)N2CCC3(CC2)CN(CC(F)(F)F)[C@H](C)[C@@H](c2ccccc2)O3)ccc1OC(C)C [Compound 123] was run?
**A.** The IC50 was 2000 to 5000 nM.

**Q.** How did the IC50 turn out when CCOCCN1CC(COC)OC2(CCN(C(=O)c3ccc(OC(C)C)c(C)c3)CC2)C1 (stereo not shown) [Compound 55] was run?
**A.** The IC50 was < 2000 nM.

**Q.** For Cc1cccnc1C1CN(CC(F)F)CC2(CCN(C(=O)c3ccc(OC(C)C)c(F)c3)CC2)O1 (stereo not shown) [Compound 261], which IC50 is on record?
**A.** The IC50 was < 2000 nM.

**Q.** How did the IC50 turn out when COCC1CN(Cc2cocn2)CC2(CCN(C(=O)c3ccc(OC(C)C)c(C)c3)CC2)O1 (stereo not shown) [Compound 64] was run?
**A.** Its IC50 is > 5000 nM.

**Q.** CCN1CC(c2ccccc2)OC2(CCN(C(=O)c3ccc(S(=O)(=O)NC4CC4)cc3)CC2)C1 (stereo not shown) [Compound 167] was tested. Which IC50 did it give?
**A.** Its IC50 is > 5000 nM.

**Q.** Which IC50 does the source give for Cc1cc(C(=O)N2CCC3(CC2)CN(CC(F)F)CC(c2ccccn2)O3)ccc1S(=O)(=O)C(C)C (stereo not shown) [Compound 65] here?
**A.** The IC50 was > 5000 nM.

**Q.** How did the IC50 turn out when CCOc1cccc(C(=O)N2CCC3(CC2)CN(c2ncccn2)CC(COC)O3)c1 (stereo not shown) [Compound 72] was run?
**A.** The IC50 was > 5000 nM.

**Q.** How did the IC50 turn out when COCC1CN(c2nccs2)CC2(CCN(C(=O)c3ccc(OC(C)C)c(C)c3)CC2)O1 (stereo not shown) [Compound 180] was run?
**A.** The IC50 was < 2000 nM.

**Q.** COCC1CN(c2cccc(C(F)(F)F)c2)CC2(CCN(C(=O)c3ccc(OCC(C)(C)O)c(C)c3)CC2)O1 (stereo not shown) [Compound 225] was tested. Which IC50 did it give?
**A.** Its IC50 is < 2000 nM.

**Q.** With CCN1CC2(CCN(C(=O)c3ccc(OC(C)C)c(OC)c3)CC2)OCC1c1ccccc1 (stereo not shown) [Compound 43] as the compound, how does the IC50 read?
**A.** The IC50 was 2000 to 5000 nM.

**Q.** For Cc1nc(C(=O)N2CCC3(CC2)CN(CC(F)(F)F)CC(c2ccccc2)O3)ccc1OC(C)C (stereo not shown) [Compound 42], which IC50 is on record?
**A.** Its IC50 is < 2000 nM.

**Q.** How did the IC50 turn out when COCC1CN(C2CCCCCC2)CC2(CCN(C(=O)c3ccc(OC(C)C)c(C)c3)CC2)O1 (stereo not shown) [Compound 201] was run?
**A.** The IC50 was < 2000 nM.

**Q.** Which IC50 does the source give for CC#CCN1CC2(CCN(C(=O)c3ccc(OC(C)C)c(C)c3)CC2)OCC1(C)C [Compound 185] here?
**A.** The IC50 was > 5000 nM.

**Q.** Which IC50 does the source give for COCC1CN(c2ccccc2)CC2(CCN(C(=O)c3ccc(OC(C)C)c(C)c3)CC2)O1 (stereo not shown) [Compound 286] here?
**A.** Its IC50 is < 2000 nM.

**Q.** How did the IC50 turn out when CC(C)Oc1ccc(C(=O)N2CCC3(CC2)CN(CC(F)F)CC(c2ccn(C)n2)O3)cc1F (stereo not shown) [Compound 263] was run?
**A.** The IC50 was < 2000 nM.

**Q.** Which IC50 does the source give for Cc1cc(C(=O)N2CCC3(CC2)CN(CC(F)F)CC(c2ccccc2)O3)ccc1OC(C)C (stereo not shown) [Compound 153] here?
**A.** Its IC50 is < 2000 nM.

**Q.** For COCC1CN(CC(=O)C(C)(C)C)CC2(CCN(C(=O)c3ccc(OC(C)C)c(C)c3)CC2)O1 (stereo not shown) [Compound 193], which IC50 is on record?
**A.** Its IC50 is < 2000 nM.

**Q.** COCC1CN(CCC(C)C)CC2(CCN(C(=O)c3ccc(OC(C)C)c(C)c3)CC2)O1 (stereo not shown) [Compound 147] was tested. Which IC50 did it give?
**A.** The IC50 was < 2000 nM.

**Q.** For Cc1cc(C(=O)N2CCC3(CC2)CN(CC(F)(F)F)CC(c2ccccc2)O3)ccc1OC1COC1 (stereo not shown) [Compound 245], which IC50 is on record?
**A.** The IC50 was < 2000 nM.

**Q.** With CC(C)Oc1ccc(C(=O)N2CCC3(CC2)CN(CC(F)(F)F)CC(c2ccccc2)O3)cc1 (stereo not shown) [Compound 119] as the compound, how does the IC50 read?
**A.** The IC50 was < 2000 nM.

**Q.** How did the IC50 turn out when COCC1CN(C2CCC(C(C)C)CC2)CC2(CCN(C(=O)c3ccc(OC(C)C)c(C)c3)CC2)O1 (stereo not shown) [Compound 304] was run?
**A.** The IC50 was < 2000 nM.

**Q.** With O=C(c1ccccc1OC(F)F)N1CCC2(CC1)CN(CC(F)(F)F)CC(c1ccccc1)O2 (stereo not shown) [Compound 90] as the compound, how does the IC50 read?
**A.** The IC50 was > 5000 nM.

**Q.** With O=C(c1ccc(C2(O)COC2)cc1)N1CCC2(CC1)CN(CC(F)(F)F)CC(c1ccccc1)O2 (stereo not shown) [Compound 151] as the compound, how does the IC50 read?
**A.** The IC50 was > 5000 nM.

**Q.** For COCC1CN(c2ncccn2)CC2(CCN(C(=O)c3ccc(OCCC(C)C)c(OC)c3)CC2)O1 (stereo not shown) [Compound 276], which IC50 is on record?
**A.** The IC50 was < 2000 nM.

**Q.** How did the IC50 turn out when CCc1cnc(C2CN(CC(F)F)CC3(CCN(C(=O)c4ccc(OC(C)C)c(C)c4)CC3)O2)o1 (stereo not shown) [Compound 214] was run?
**A.** Its IC50 is 2000 to 5000 nM.

**Q.** How did the IC50 turn out when COCC1CN(c2ccc(C#N)cc2)CC2(CCN(C(=O)c3ccc(OC(C)C)c(C)c3)CC2)O1 (stereo not shown) [Compound 70] was run?
**A.** The IC50 was < 2000 nM.

**Q.** For COc1cc(C(=O)N2CCC3(CC2)CN(CC(F)F)CC(c2ccc(F)cc2)O3)ccc1OC(C)C (stereo not shown) [Compound 274], which IC50 is on record?
**A.** The IC50 was < 2000 nM.

**Q.** How did the IC50 turn out when Cc1cc(C(=O)N2CCC3(CC2)CN(c2ncccn2)C(C)(C)CO3)ccc1OC(C)C [Compound 51] was run?
**A.** Its IC50 is > 5000 nM.

**Q.** For COCC1CN(c2ncc(F)cn2)CC2(CCN(C(=O)c3ccc(OC(C)C)c(C)c3)CC2)O1 (stereo not shown) [Compound 187], which IC50 is on record?
**A.** The IC50 was < 2000 nM.

**Q.** For CC(C)(O)c1ccc(C(=O)N2CCC3(CC2)CN(CC(F)(F)F)CC(c2ccccc2)O3)cc1F (stereo not shown) [Compound 257], which IC50 is on record?
**A.** The IC50 was < 2000 nM.

**Q.** For COCC1CN(c2ncccn2)CC2(CCN(C(=O)c3ccc(OC(C)C)c(C)n3)CC2)O1 (stereo not shown) [Compound 282], which IC50 is on record?
**A.** Its IC50 is < 2000 nM.

**Q.** Which IC50 does the source give for CCC1CN(CC2CC2)CC2(CCN(C(=O)c3ccc(OC(C)C)c(C)c3)CC2)O1 (stereo not shown) [Compound 46] here?
**A.** Its IC50 is < 2000 nM.

**Q.** Cc1cc(C(=O)N2CCC3(CC2)CN(CC#N)CC(c2ccccc2)O3)ccc1C(C)(C)O (stereo not shown) [Compound 68] was tested. Which IC50 did it give?
**A.** Its IC50 is 2000 to 5000 nM.

**Q.** How did the IC50 turn out when COCC1CN(Cc2ccccc2)CC2(CCN(C(=O)c3ccc(OC(C)C)c(C)c3)CC2)O1 (stereo not shown) [Compound 169] was run?
**A.** Its IC50 is < 2000 nM.

**Q.** For COCC1CN(CC(=O)OC)CC2(CCN(C(=O)c3ccc(OC(C)C)c(C)c3)CC2)O1 (stereo not shown) [Compound 215], which IC50 is on record?
**A.** Its IC50 is 2000 to 5000 nM.

**Q.** With CC#CCN1CC(CC)OC2(CCN(C(=O)c3ccc(OC(C)C)c(C)n3)CC2)C1 (stereo not shown) [Compound 277] as the compound, how does the IC50 read?
**A.** The IC50 was 2000 to 5000 nM.

**Q.** Which IC50 does the source give for CC(C)Oc1ccc(C(=O)N2CCC3(CC2)CN(CC(F)F)CC(c2ccc(F)cc2)O3)cc1F (stereo not shown) [Compound 244] here?
**A.** Its IC50 is < 2000 nM.

**Q.** COCC1CN(c2ccncc2)CC2(CCN(C(=O)c3ccc(OC(C)C)c(C)c3)CC2)O1 (stereo not shown) [Compound 31] was tested. Which IC50 did it give?
**A.** Its IC50 is > 5000 nM.

**Q.** With COCC1CN(C2CCC(C)CC2)CC2(CCN(C(=O)c3ccc(OC(C)C)c(C)c3)CC2)O1 (stereo not shown) [Compound 5] as the compound, how does the IC50 read?
**A.** Its IC50 is < 2000 nM.

**Q.** With COCC1CN(c2ncccn2)CC2(CCN(C(=O)c3ccc(OC(C)C)cc3)CC2)O1 (stereo not shown) [Compound 136] as the compound, how does the IC50 read?
**A.** The IC50 was 2000 to 5000 nM.

**Q.** With CCN1CC(c2ccccc2)OC2(CCN(C(=O)c3ccc(OC(C)C)c(C)c3)CC2)C1 (stereo not shown) [Compound 22] as the compound, how does the IC50 read?
**A.** The IC50 was < 2000 nM.

**Q.** Which IC50 does the source give for CCC1CN(c2ncccn2)CC2(CCN(C(=O)c3ccc(C4=CCCC4)c(F)c3)CC2)O1 (stereo not shown) [Compound 130] here?
**A.** Its IC50 is > 5000 nM.

**Q.** CC(C)(O)Cc1ccc(C(=O)N2CCC3(CC2)CN(CC(F)(F)F)CC(c2ccccc2)O3)cc1 (stereo not shown) [Compound 133] was tested. Which IC50 did it give?
**A.** The IC50 was < 2000 nM.

**Q.** How did the IC50 turn out when COCC1CN(c2ncccn2)CC2(CCN(C(=O)c3ccc(S(=O)(=O)C4CC4)cc3)CC2)O1 (stereo not shown) [Compound 208] was run?
**A.** The IC50 was > 5000 nM.

**Q.** COCC1CN(C2CCCC2)CC2(CCN(C(=O)c3ccc(OC(C)C)c(C)c3)CC2)O1 (stereo not shown) [Compound 302] was tested. Which IC50 did it give?
**A.** Its IC50 is < 2000 nM.

**Q.** CCN1CC2(CCN(C(=O)c3ccc(OC(C)C)c(C)c3)CC2)OC(c2ccccc2)C1=O (stereo not shown) [Compound 9] was tested. Which IC50 did it give?
**A.** Its IC50 is 2000 to 5000 nM.

**Q.** Which IC50 does the source give for CCC1CN(CC(F)(F)F)CC2(CCN(C(=O)c3ccc(OC(C)C)c(C)c3)CC2)O1 (stereo not shown) [Compound 233] here?
**A.** Its IC50 is < 2000 nM.

**Q.** How did the IC50 turn out when COc1cc(C(=O)N2CCC3(CC2)CN(CC(F)F)C(c2ccccc2)CO3)ccc1OC(C)C (stereo not shown) [Compound 100] was run?
**A.** Its IC50 is < 2000 nM.

**Q.** CC(C)Oc1ccc(C(=O)N2CCC3(CC2)CN(CC(F)F)CC(c2ccccc2)O3)cc1F (stereo not shown) [Compound 77] was tested. Which IC50 did it give?
**A.** Its IC50 is < 2000 nM.
